Test results reported in patent US9872871B2, “Compositions for use in restoring muscle glycogen and/or muscle mass” (Aarhus Universitet, priority 2013, dated 2018).
“Also recorded” adds a separate entry of the source.

How the values were obtained:
[1] = Wistar rats, 20 mg/kg orally daily for 5 days, cited from earlier work
[2] = test system: skeletal muscle glucose transport system; conditions: soleus and epitrochlearis muscles of lean and obese Zucker rats; dose-dependent; cited from earlier work
[3] = lean and obese Zucker rats; 200 or 500 mg/kg by gavage; cited from earlier work
[4] = type 2 diabetic subjects, cited from earlier work
[5] = test system: muscle glycogen (vastus lateralis); experiment: Muscle glycogen resynthesis after glycogen depleting exercise, double blinded crossover, vastus lateralis biopsies; assay type: in vivo, human
Description: In this example, the effect is examined of a 500 mg steviol glycosides supplementation together with post-exercise oral carbohydrate (1.5 g/kg/h), versus an isocaloric carbohydrate supplementation on muscle glycogen resynthesis, following glycogen depletive exercise. Fifteen trained male cyclists performed two cycling sessions of 120 min at 75-85% Vo2-max, with the post exercise supplementation of stevioside organized in a double blinded crossover study design. Over the course of a 4 h of recovery period, muscle biopsies were obtained from the vastus lateralis immediately and 240 minutes after exercise, to measure post-recovery glycogen concentration and rate of post-exercise glycogen synthesis. In order to measure plasma glucose, insulin and glucagon, blood samples were drawn before and immediately after exercise, and at every half hour during the four hour recovery period. Results A significant increase in total glycogen concentration was seen following the 4 hour of recovery in both trials (p<0.005). […] Plasma glucose and glucagon levels also show a reduction when stevioside was supplied.
In the present study, a double blinded crossover protocol was used to examine the effect of post exercise carbohydrate ingestion supplemented with or without stevioside supplementation on muscle glycogen resynthesis. The double blinded crossover protocol was chosen to ensure a satisfactory statistical power with the relative few subjects that were included in this study. After completing a preliminary anthropometric assessment incremental and VO2-max test, each subject completed two randomized experimental trials; separate by at least seven days.
After the preliminary testing, each subject underwent two experimental trials, with the experimental supplementation randomized using a randomizing software (Research randomizer) and blinded to both subject and researchers by supplementing the stevioside concealed in capsules. […] The two experimental trials were separated by at least seven days. The subjects were instructed to refrain from any intense exercise 24 hour before both the preliminary test and the two experimental trials. […]
As illustrated the table below, the subjects arrived fasting at 8:00 o'clock a.m. in the lab and completed a glycogen depletion ride consisting of 120 minutes cycling at 75%-80% of their maximal heart rate reserve, followed by a series of five 30 seconds sprint interval at an all-out intensity interspaced with a rest period of 60 seconds. Workload and target heart rate zone was calculated for the subjects, based on the results presented in table 1, performance characteristics of the subjects. […]

isolated mouse islets = conditions: effect faded at normal to low glucose; cited from earlier work
[6] = Plasma glucose, insulin and glucagon during the four hour recovery period; assay type: in vivo, human
Description: Before the subjects started the depletion ride, blood was drawn from a medial antecubital vein to establish baseline values for plasma glucose, plasma insulin and plasma glucagon concentrations. After completion of the depletion ride and 240 minutes later, a muscle biopsy was obtained from the vastus lateralis muscle by the use of a percutaneous needle biopsy technique, using the protocol described by Bergström (Bergström 1962). The biopsy sampling was performed by a trained physician with extensive experience in sterile technique. An area of anterolateral side of one thigh was disinfected with chlorhexidine, and local anesthetized with lidocaine (10 mg/ml) in the skin, subcutaneous tissue and muscle fascia. After the area was covered with a sterile hole-piece, a small incision in the skin and fascia of the leg was made with a scalpel and a tissue sample was taken with a Bergström biopsy needle with the aid of suction. The biopsy procedure was managed by Mikkel Overgaard, and assisted by Søren Lavrsen. Approx. 100 mg of muscle tissue was taken from the vastus lateralis muscle. The muscle tissue samples were weighted and immediately placed in liquid nitrogen, and then transferred to a freezer (−80° C.) for storage until analysis for determination of glycogen concentration would be made. At the same time a polyethylene catheter was placed subcutaneous into a medial antecubital vein from which blood samples were collected. 10 ml of blood were drawn for the analysis of plasma glucose and insulin, and 7.5 ml of blood was drawn for the analysis of plasma glucagon. After the first sample at 0 minutes, blood was drawn at 30, 60, 90, 120, 150, 180, 210 and 240 minutes after the subject has finished the glycogen depletion protocol. Blood samples were centrifuged before 2 ml of the plasma was pipetted into standard analyzing tubes and stored at −80° C. for later analysis.
Immediately after the muscle biopsy procedure and initial blood sampling, the subjects ingested either 500 mg of steviol glucosides, or placebo (500 mg of corn starch) Supplementation, together with 1.5 gr/body weight of liquid maltodextrine solution (Pure Power, Harre Denmark). The sequence of stevioside and placebo supplementation was randomized in a balanced order. At 60, 120 and 180 minutes after termination of the depletion ride, the subjects received another carbohydrate rich feeding (1.5 gr/body weight/hour of Carbohydrates/kg body weight/hour), in accordance with the guidelines recommended by (Ivy et al. 1988).
Blood samples were collected for the measurements for measurement of the plasma glucose, insulin and glucagon values before initiation of the glycogen depletion protocol and at 0, 30, 60, 90, 120, 150, 180, 210 and 240 minutes after the subject has finished the glycogen depletion protocol.
10 ml of blood were drawn for the analysis of plasma glucose and insulin, and 7.5 ml of blood was drawn for the analysis of plasma glucagon. All blood was drawn from the antecubital vein. For glucose and insulin the drawn blood was collected in lilthium heparinized tubes (Venosafe—plasma VF-109SHL, Terumo Europe N.V., Leuven, Belgium). For glucagon the drawn blood was collected in EDTA treated tubes (Venosafe). With all samples the tubes were turned over 10 times, to avoid coagulation, before they were centrifuged at 1500 G for 10 minutes at 5° C. using a Sigma 3-18 centrifuge (Sigma Laborzentrifugen GmbH, Osterode am Harz, Germany). 2 ml of the plasma was pipetted into standard analyzing tubes and stored at −80° C. for later analysis. After all testing sessions were finished; all blood samples were packed, according to regulations, in an icebox at […], and transported to the Diabetes laboratory 4, at Aarhus University Hospital, Tage-Hansens Gade (Aarhus, Denmark) for analysis of plasma glucose, insulin and glucagon concentration. […]

[7] = type II diabetic patients, cited from earlier work

C=C1C[C@@]23CC[C@H]4[C@@](C)(CCC[C@@]4(C)C(=O)O[C@@H]4O[C@H](CO)[C@@H](O)[C@H](O)[C@H]4O)[C@@H]2CC[C@]1(O[C@@H]1O[C@H](CO)[C@@H](O)[C@H](O)[C@H]1O[C@@H]1O[C@H](CO)[C@@H](O)[C@H](O)[C@H]1O)C3 [stevioside, Stevioside]
glucose levels before the glucose test compared to control group [1]: no significant decrease
glucose levels under increased loading during the glucose test ([1]; stevioside alone): conferred beneficial effects
insulin action on skeletal muscle glucose transport system [2]: improves the insulin action
fasting plasma glucose and insulin [3]: did not significantly affect
suppression of postprandial blood glucose level ([4]; 1 g stevioside with standard meal vs maize starch): 18%
circulating insulin levels ([4]; 1 g stevioside with standard meal): tended to be increased
increase of glycogen resynthesis rate compared to placebo ([5]; 4 h recovery, 500 mg orally with carbohydrate): 35%
glycogen resynthesis rate (rate of glycogen repletion) ([5]; 4 h recovery, 500 mg steviol glycosides orally with carbohydrate 1.5 g/kg/h, mean±SE, placebo 27.96±2.6): 37.84 ± 3.72 mmol/kg/h
muscle glycogen concentration ([5]; 240 minutes after completion of the depletion protocol, placebo 246.4±20): 281.5±29 mmol/kg/dw
effect on post-exercise muscle glycogen resynthesis ([5]; four hour recovery period, in addition to carbohydrate, p<0.022): increase muscle glycogen resynthesis significantly
insulin release (isolated mouse islets): glucose-dependent insulin release
time of second plasma insulin peak concentration ([6]; after third CHO feeding at 120 minutes, placebo at 150): 180 min
difference in plasma insulin concentration between stevioside and control (iAUC) ([6]; any times during the recovery period, p=0.95): no significant difference
plasma glucagon concentration (area under the curve) compared to placebo ([6]; four hour recovery period): reduction
plasma glucagon concentration (area under the curve) compared to placebo ([6]; four hour recovery period, listed as stevia): clearly reduced
plasma glucose response (iAUC) compared to placebo ([6]; four hour recovery period, not statistically significant): reduction; also recorded: lower
plasma insulin, mean area under the curve ([6]; four hour recovery period, placebo 55790±12660): 56720±11950 ng/ml*4 hours
postprandial glucagon like peptide-1 level ([7]; 1 g orally): significantly reduced
insulin response ([7]; 1 g orally, not statistically significant): tended to stimulate insulin response
reduction of post prandial blood glucose response compared to placebo ([7]; 1 g stevioside orally with standard meal): 18.5%
